# Assays:
# Assay type in all cases: cell-based
# [1] = tested on: ARPE-19 (human retinal pigment epithelial cell line); assay: MTS assay (cytotoxicity), Pentablock Polymer B protocol; conditions: ARPE 19, Triton X control; blank = 100
# Protocol: (§1) The cytotoxicity and biocompatibility of the Pentablock Polymer A and Pentablock Polymer B were investigated in several cell lines. ARPE-19 (human retinal pigment epithelial cell line), SIRC (rabbit corneal cell line), and RAW 264.7 (mouse macrophage cell line) were obtained from American Type Culture Collection ("ATCC"). ARPE-19 cells were cultured in Dubelcco's modified Eagle's medium ("DMEM/F12") supplemented with 10% fetal bovine serum ("FBS"), 100 U/mL penicillin and 100 µg/mL of streptomycin. SIRC cells were cultured in minimum essential medium ("MEM") and supplemented with 10% FBS, 100 U/mL of penicillin and 100 µg/mL of streptomycin. RAW 264.7 (Mouse macrophage cells) cells were cultured in DMEM/F12supplemented with 10% FBS, 10% of nonessential amino acids, 100 U/mL penicillin and 100 µg/mL of streptomycin. The pH of the medium was adjusted to 7.4 and cells were incubated in humidified atmosphere at 37 °C temperature with 5% CO2 environment. The cell cultures were exposed directly to different concentrations of Pentablock Polymer A and Pentablock Polymer B. […]
# (§2) MTS assay is based on the reduction of the tetrazolium salt (yellow) to fromazone (purple) by mitochondrial enzymes of metabolic active cells. […] After incubation, the absorbance of each well was measured at 450 nm by ELISA plate reader. The absorbance is directly proportional to viability of cells. […]
# [2] = tested on: RAW 264.7 (mouse macrophage cell line); assay: MTS assay (cytotoxicity), Pentablock Polymer A protocol; conditions: RAW 264.7, Triton X control; blank = 100
# Protocol: as §1, §2
# [3] = tested on: SIRC (rabbit corneal cell line); assay: as above; conditions: Triton X control, blank = 100
# Protocol: as §1, §2
# [4] = tested on: PCEC; assay: MTS assay (cytotoxicity), Pentablock Polymer B protocol; conditions: Triton X control, blank = 100
# Protocol: Pentablock Polymer B: Cytotoxicity for Pentablock Polymer B was performed at different concentration ranging from 0.5-10 mg/ml. The plates were seeded with cell density of 10,000 cells/100 µL. After 24 hours of incubation fresh medium containing hydrogel of different concentration ranging from 0.5-10 mg/ml were added and further incubated for 24 hours. MTS assay is based on the reduction of the tetrazolium salt (yellow) to fromazone (purple) by mitochondrial enzymes of metabolic active cells. The amount of the fromazone is directly proportional to viable cells. In MTS assay Trioton X treated cells were served as negative control and untreated cells served as positive control. Then, 100 µL of serum free medium containing 20 µL of MTS solution was added to the 96 well plates, and these plates were incubated at 37 °C and 5% CO2 for 4 hours. After incubation, the absorbance of each well was measured at 450 nm by ELISA plate reader. The absorbance is directly proportional to viability of cells. Table 1: MTS assay on Pentablock Polymer A
substance,measurement,setting,value
Triton X,MTS assay,[1],0.000 ± 0.491
same,MTS assay,[2],0 ± 0.594
same,MTS assay,[3],0 ± 0.271
same,MTS assay,[4],0.000 ± 1.099

# From patent EP2766407B1, “PENTABLOCK POLYMERS” (The Curators Of The University Of Missouri, priority 2011, dated 2013)
